Laboratory results: US20260364088A1, “TASL MIMICKING MOLECULES AND APPLICATIONS THEREOF” (CEMM - FORSCHUNGSZENTRUM FÜR MOLEKULARE MEDIZIN GMBH, priority 2022, published 2026)

Legend:
IRF5 = experiment: Microscopy-based IRF5 nuclear translocation assay in CAL-1 cells; conditions: human monocytic and pDC cell lines
Protocol: CAL-1, THP1 or human primary cells were incubated with dTASL1 and other identified compounds (or the corresponding volume of DMSO vehicle) for 24 h or 48 h at the indicated concentration and subsequently stimulated with R848 (5 μg/ml) for the indicated time. Supernatant or cells were recovered for ELISA, SDS-PAGE or microscopy-based analysis.
5×10^5 CAL-1 cells in 500 μl medium (wildtype, drug-treated or gene-deficient as indicated) were seeded on poly-L-lysine hydrobromide (P6282, Sigma-Aldrich)-coated coverslips in 24-well cell culture plates and immediately stimulated with 5 μg/ml R848 (Invivogen) or left unstimulated. Afterwards, medium was removed and cells were fixed with 4% formaldehyde in PBS for 15 minutes at room temperature (RT), followed by blocking and permeabilization with 5% FBS and 0.3% Triton X-100 in PBS for 1 h at RT. […]
Images were acquired on a Zeiss LSM-980 equipped with an AiryScan2 detector and processed in Zeiss ZEN version 3.6. Computational image analysis was performed with CellProfiler version 4.2.4 and data analyzed in R version 4.2.1 facilitating the following packages: ‘tidyverse’, ‘data.table’ and ‘ggpubr’. In brief nuclei and cytoplasmic regions were identified and nuclear to cytoplasmic median intensity ratios were calculated on a single cell level. […]

SLC15A4-GFP = SLC15A4-GFP (Homo sapiens, UniProt Q8N697); experiment: SLC15A4-GFP levels when expressed alone in HEK293T cells; format: cell-based; conditions: 10 µM, 24 h
Sequence of SLC15A4-GFP (Q8N697 whole entry): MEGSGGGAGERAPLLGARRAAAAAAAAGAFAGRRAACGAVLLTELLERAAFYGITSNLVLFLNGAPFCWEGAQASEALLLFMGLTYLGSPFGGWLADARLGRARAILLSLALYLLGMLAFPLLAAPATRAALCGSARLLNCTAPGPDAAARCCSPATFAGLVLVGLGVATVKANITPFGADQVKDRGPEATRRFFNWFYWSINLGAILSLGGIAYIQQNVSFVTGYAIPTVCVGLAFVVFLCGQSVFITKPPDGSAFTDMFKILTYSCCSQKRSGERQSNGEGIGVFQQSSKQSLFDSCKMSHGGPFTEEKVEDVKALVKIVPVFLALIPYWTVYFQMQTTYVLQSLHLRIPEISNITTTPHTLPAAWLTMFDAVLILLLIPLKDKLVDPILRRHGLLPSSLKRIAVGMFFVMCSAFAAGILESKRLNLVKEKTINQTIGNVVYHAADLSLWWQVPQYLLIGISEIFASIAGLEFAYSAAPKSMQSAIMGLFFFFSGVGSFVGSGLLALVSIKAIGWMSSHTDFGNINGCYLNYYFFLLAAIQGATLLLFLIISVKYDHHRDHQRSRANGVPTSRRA
Protocol: Cells transfected with TASL-V5 plasmid were stained for V5-tag and detected with deep red Alexa Fluor 647 secondary antibody to allow for selection in the presence of an mCherry reporter. Cells were measured either immediately after staining or in the case of live cells immediately after harvesting and washing with PBS. Data were acquired on a BD FACSCalibur (BD Biosciences) and analyzed with FlowJo software (version 10).
For live cell imaging cells were plated in PhenoPlate 96-well plates or Ibidi m-Slide 8 (Ibidi) wells at 16 k/well and incubated over-night. Then compounds were added, if indicated, and cells were imaged after 24 h of incubation. Cells were stained with LysoTracker Deep Red L12492 (ThermoFisher) and Hoechst 34580 (ThermoFisher). […] Images were analyzed with Fiji-ImageJ.
Encouraged by the fact that the chemical entity of the present invention was showing the desired behavior and specificity profile, it became important to better clarify the molecular basis of this uncommon mechanism of action, i.e interference with a highly specific protein interaction leading to degradation of a single complex component. The effect of dTASL1 on complex assembly was first monitored. […]

NF-κB p65 = NF-κB p65 nuclear translocation in CD19^+ B cells of PBMCs (confocal microscopy); format: cell-based, human; conditions: primary B cells, dTASL1 10 µM 24 h, R848 (5 μg/ml) 3 h, n=7
Protocol: PBMCs were treated for 24 h with DMSO or dTASL1 (10 µM) and thereafter stimulated with 5 μg/ml R848 (Invivogen) for three hours or left unstimulated. Cells were harvested and stained for 30 minutes with PE-conjugated anti-CD19 antibodies (BioLegend, #302254, 1:200 in PBS/2% FBS) on ice and fixed with 4% formaldehyde in PBS for 15 minutes at RT. Permeabilization and staining for NF-κB p65 and IRF5 and counterstaining was performed as for CAL-1 and cells were seeded at a concentration of 3×10^4 cells/well onto 384-well imaging plates. Images were acquired on a PerkinElmer Opera Phenix HCS spinning disc confocal microscope and analyzed as described above with the additional identification of B cells based on CD19 membrane staining intensity. This protocol also applies to the cells obtained from SLE patients.
Given that all evidence obtained seems to confirm the mechanistic precision of this chemical agent, any further consideration of assessing the therapeutic potential required evidence for activity in human primary cells relevant for SLE pathophysiology. The effect of dTASL1 in human peripheral blood mononuclear cells (PBMCs) was assessed. […] It has been previously shown that the SLC15A4-TASL module was required for TNF production in primary human monocytes. […] The impact of dTASL1 on TLR7/8 responses by directly monitoring IRF5 by confocal microscopy in B cells was assessed.

## CCOc1ccc(-c2cc(C(=O)NCCCN3CCCCC3C)c3ccccc3n2)cc1 (stereo not drawn) [dTASL1, 2-(4-ethoxyphenyl)-N-(3-(2-methylpiperidin-1-yl)propyl) quinoline-4-carboxamide]
IRF5
  TLR7/8-induced IRF5 activation: specifically impairs TLR7/8-induced IRF5 activation
SLC15A4-GFP
  total levels of SLC15A4-GFP: did not affect total levels of SLC15A4-GFP
NF-κB p65
  activation of NF-κB p65: without affecting the activation of NF-κB p65
